Assays:
Format in all cases: ADME
[1] = Minimal lethal dose in mice showing no adverse symptoms seen; settings: mouse, in vivo
[2] = Minimal lethal dose in mice causing gradual progressive onset of severe scratching of face and body, spasms, paralysis, severe eye damage, and death; range: 0.2-0.4; settings: mouse, in vivo
[3] = Minimal lethal dose in mice causing gradual progressive onset of severe scratching of face and body, spasms, paralysis (30 min after injection), severe eye damage, and death occurring within 24 h; range: 0.38-0.77; settings: mouse, in vivo
[4] = Minimal lethal dose in mice causing no scratching or eye damage, but frenetic jumping, severe spasms, and ultimately paralysis; if death did not occur within 30 min, total recovery was noted; range: 1.5-3.1; settings: mouse, in vivo, 0.5 h
[5] = Minimal lethal dose in mice causing gradual progressive onset of severe scratching of face and body, spasms, paralysis, severe eye damage, and death; range: 1.5-3.1; settings: mouse, in vivo

**Q.** Which MLD [1] does the source give for `COC1C(O)C(C)OC(O[C@H]2C(OC)COC(O[C@H]3C[C@H]4CC(=O)[C@@]5(O)O[C@H](C[C@H]5C)C(C)(C)[C@@H](/C=C/c5ccccc5)OC(=O)C[C@H](O4)[C@@H]3C)[C@@H]2OC)[C@H]1OC` (stereo partly drawn) here?
**A.** The MLD was over 13 mg/kg.

**Q.** Which MLD [2] does the source give for `CO[C@@H]1[C@H](O[C@@H]2[C@@H](OC)[C@H](O[C@H]3C[C@H]4CC(=O)[C@@]5(O)O[C@H](C[C@H]5C)C(C)(C)[C@@H](/C=C/C=C/C=C/C(C)C)OC(=O)C[C@H](O4)[C@@H]3C)OC[C@H]2OC)O[C@@H](C)[C@@H](O)[C@@H]1OC` [polycavemoside A] here?
**A.** Its MLD is 0.2 mg/kg.

**Q.** For `CO[C@@H]1[C@H](O[C@@H]2[C@@H](OC)[C@H](O[C@H]3C[C@H]4CC(=O)[C@@]5(O)O[C@H](C[C@H]5C)C(C)(C)[C@@H](/C=C/C#C/C=C/C(C)C)OC(=O)C[C@H](O4)[C@@H]3C)OC[C@H]2OC)O[C@@H](C)[C@@H](O)[C@@H]1OC`, which MLD [3] is on record?
**A.** Its MLD is 0.38 mg/kg.

**Q.** With `CC(C)/C=C/C=C/C=C/[C@H]1OC(=O)C[C@@H]2O[C@H](CC(=O)[C@@]3(O)O[C@H](C[C@H]3C)C1(C)C)C[C@H](O)[C@H]2C` as the molecule, how does the MLD [4] read?
**A.** Its MLD is 1.5 mg/kg.

**Q.** Which MLD [1] does the source give for `CO[C@@H]1[C@H](O[C@@H]2[C@@H](OC)[C@H](O[C@H]3C[C@H]4CC(=O)[C@@]5(O)O[C@H](C[C@H]5C)C(C)(C)[C@@H](/C=C/C=C/C5CCCCC5)OC(=O)C[C@H](O4)[C@@H]3C)OC[C@H]2OC)O[C@@H](C)[C@@H](O)[C@@H]1OC` here?
**A.** Its MLD is over 13 mg/kg.

**Q.** With `C[C@H]1[C@@H]2CC(=O)O[C@H](/C=C/I)C(C)(C)[C@H]3C[C@@H](C)[C@](O)(O3)C(=O)C[C@H](C[C@@H]1O)O2` as the molecule, how does the MLD [1] read?
**A.** Its MLD is over 13 mg/kg.

**Q.** With `CO[C@@H]1[C@H](O[C@@H]2[C@@H](OC)[C@H](O[C@H]3C[C@H]4CC(=O)[C@@]5(O)O[C@H](C[C@H]5C)C(C)(C)[C@@H](/C=C/C=C/C(C)C)OC(=O)C[C@H](O4)[C@@H]3C)OC[C@H]2OC)O[C@@H](C)[C@@H](O)[C@@H]1OC` as the molecule, how does the MLD [5] read?
**A.** Its MLD is 3.1 mg/kg.

**Q.** With `CO[C@@H]1[C@H](OC)[C@H](O[C@@H]2[C@@H](OC)[C@H](O[C@H]3C[C@H]4CC(=O)[C@@]5(O)O[C@H](C[C@H]5C)C(C)(C)[C@@H](/C=C/C=C/C(C)C)OC(=O)C[C@H](O4)[C@@H]3C)OC[C@H]2OC(C)=O)O[C@@H](C)[C@H]1OC` [polycavernoside B] as the molecule, how does the MLD [2] read?
**A.** The MLD was 0.2 mg/kg.
